Columns and labels:
Orexin receptor type 2 = target: T1, Orexin receptor type 2 (Homo sapiens, UniProt O43614); experiment: (§1) Evaluation of Activity for OX1R and OX2R: HEK293 (human embryonic kidney 293) cells with forced expression of human OX1R (hOX1R) or human OX2R (hOX2R) were seeded in a 384-well microplate (Greiner) at 10,000 per well and cultured for 1 day in high-glucose-DMEM (FujiFilm Corp.—Wako Pure Chemical Industries, Ltd.) containing added 10% FBS ([…]) and 1% Penicillin-Streptomycin (FujiFilm Corp.—Wako Pure Chemical Industries, Ltd.). After removing the medium, 40 μL of assay buffer (20 mM HEPES (Sigma-Aldrich Japan, KK.), Hanks' balanced salt solution (Gibco), 0.1% BSA (Sigma-Aldrich Japan, KK.), 0.1% Pluronic F-127 (Invitrogen)) containing Calcium 4 dye (Molecular Device Corporation) and 2.5 mM probenecid (Sigma-Aldrich Japan, KK.) were added, and the plate was incubated for 60 minutes. After further adding 20 μL of assay buffer, 20 μL of assay buffer containing the test compound was added and reaction was initiated. Change in intracellular calcium ion concentration during the reaction was measured based on the fluorescence intensity ratio in terms of the fluorescence value with wavelength excitation at 480 nm and detection at 540 nm, using FDSS7000 (Hamamatsu Photonics, K.K.). The test compound was dissolved in DMSO to 10 mM, and diluted with assay buffer to a final concentration of from 3×10−11 M to 1×10−7 M (DMSO final concentration of 0.1%). […]; format: cell-based
T1 sequence (O43614 whole entry): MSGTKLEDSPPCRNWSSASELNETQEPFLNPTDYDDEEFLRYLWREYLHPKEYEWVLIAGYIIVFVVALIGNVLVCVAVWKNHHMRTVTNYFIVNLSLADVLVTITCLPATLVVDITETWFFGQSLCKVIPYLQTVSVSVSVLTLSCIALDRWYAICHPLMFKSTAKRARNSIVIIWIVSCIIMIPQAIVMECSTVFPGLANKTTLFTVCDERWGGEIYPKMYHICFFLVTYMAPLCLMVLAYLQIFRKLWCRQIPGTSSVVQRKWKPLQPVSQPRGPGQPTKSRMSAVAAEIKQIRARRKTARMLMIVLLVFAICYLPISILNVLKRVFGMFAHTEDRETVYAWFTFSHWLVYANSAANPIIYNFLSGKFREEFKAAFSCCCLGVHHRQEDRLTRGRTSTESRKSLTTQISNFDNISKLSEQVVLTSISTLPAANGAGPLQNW

[1] = target: T2, Orexin/Hypocretin receptor type 1 (Homo sapiens, UniProt O43613); experiment: as §1; format: cell-based
T2 sequence (O43613 whole entry): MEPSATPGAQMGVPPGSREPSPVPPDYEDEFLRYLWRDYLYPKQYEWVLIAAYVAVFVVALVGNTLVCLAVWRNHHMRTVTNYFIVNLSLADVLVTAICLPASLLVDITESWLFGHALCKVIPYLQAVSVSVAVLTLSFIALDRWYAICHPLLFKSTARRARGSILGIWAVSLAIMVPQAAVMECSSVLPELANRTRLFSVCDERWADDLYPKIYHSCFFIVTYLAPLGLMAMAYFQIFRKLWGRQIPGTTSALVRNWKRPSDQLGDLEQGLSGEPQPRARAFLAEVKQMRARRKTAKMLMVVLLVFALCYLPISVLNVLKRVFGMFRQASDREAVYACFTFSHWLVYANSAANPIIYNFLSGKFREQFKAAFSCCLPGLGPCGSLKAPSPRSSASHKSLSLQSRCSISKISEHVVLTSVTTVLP

## CO[C@@H]1CN(c2ncc(F)cn2)CC[C@@H]1[C@@H]1C[C@H]2CC[C@@H](C1)N2[C@@H](C(N)=O)C(C)C
Orexin receptor type 2
  EC50: 3.08 nM
[1]
  EC50: > 100 nM
